Values joined by “and” are separate entries in the source; they are usually repeats but may differ in a detail not shown here. Equal entries are not always repeated. Numbered stars: 1 amine (or outer) side, 2 acyl side, 3 side chain; on linkers, the order of the positions; unused ones are H or OH. Square brackets hold non-standard residues; d marks the D form. Ends that are not written are not given here. Benzoyl(5-NH,2-NO2) = O=C(c1cc(N[*:1])ccc1[N+](=O)[O-])[*:2]; 2Abz = Nc1ccccc1C(=O)O
Key:
Format in all cases: biochemical, human
[1] = test system: proteolytic enzymes specific/characteristic of kidney cancer in urine; assay: Absorbance measurement of substrate hydrolysis in individual urine samples (kidney cancer and healthy subjects); conditions: for Results of absorbance analysis (rate of hydrolysis of the substrate): 405 nm, 37° C., 60 minutes, pH 8.0, triplicate
Description: (§1) The activity of the novel compounds according to the invention was studied in a group of 20 subjects diagnosed with kidney cancer using the representative compound according to the invention. […] The remaining compounds according to the invention are characterized by the analogous mechanism of action. For this purpose, the representative compound according to the invention, ABZ^1-Leu^2-Pro^3-Gly^4-Thr^5-ANB^6—NH2, was dissolved in dimethyl sulfoxide (at a concentration of 0.5 mg/mL) and then 50 μL of the solution was mixed with 120 μL of a buffer (200 mM Tris-HCl, pH 8.0) and 80 μL of urine from a subject suffering from kidney cancer. The measurement was performed on a 96-well plate designed for measuring absorbance and each sample was analysed in triplicate at the temperature of 37° C. The duration of the measurement was 60 minutes. During the measurement, the wavelength characteristic for the chromophore (ANB-NH2) being released was monitored at the wavelength 405 nm (range 380-430 nm).
The observed magnitude of increase in absorbance in time is different for each of the examined samples.
Such a result may be due to the difference in the activity as well as the amount of enzymes responsible for the enzymatic cleavage (proteolysis). […] The result indicates the absence of proteolytic enzymes specific/characteristic of kidney cancer.

[2] = test system: proteolytic enzymes in urine from patients with different cancers; assay: Selectivity of substrate cleavage in urine samples by cancer type; conditions: testicular, prostate, pancreatic, biliary duct, lung, ovary, rectum cancer; mixture of 20 samples each; FIG. 3
Source text: Arabic numerals indicate the numbers of given cancer types. The samples tested for each type of cancer were derived from 20 different patients for each of the tested cancers. The results are mean values for given cancer types.
as §1
Furthermore, the dependence of the cleavage selectivity of the substrate, i.e. the compound according to the invention, on the cancer type being examined, was studied. […]

[3] = test system: proteolytic enzymes in urine from a person diagnosed with kidney cancer; assay: RP HPLC analysis of substrate cleavage in urine from a person with kidney cancer; conditions: randomly selected urine from a person diagnosed with kidney cancer; FIG. 1
[4] = test system: proteolytic enzymes in urine; assay: Dependence of substrate hydrolysis on reaction pH; conditions: FIG. 4
Description: Furthermore, measurements concerning the dependence of the proteolytic activity of the representative compound according to the invention on the reaction pH were performed.

[5] = test system: proteolytic enzymes specific/characteristic of kidney cancer in urine; assay: Absorbance measurement of substrate hydrolysis in individual urine samples (kidney cancer and healthy subjects)

- Cleavage of the substrate in urine samples from persons suffering from kidney cancer ([1]; all samples N1-N20): underwent cleavage
- Efficiency of substrate cleavage in samples N3 and N6 ([1]; compared with samples N5 or N20, FIG. 2, Table 1): less efficiently
- Results of absorbance analysis (rate of hydrolysis of the substrate) ([1]; urine sample 21, healthy subject): 0.000000
- Results of absorbance analysis (rate of hydrolysis of the substrate) ([1]; urine sample 22, healthy subject): 0.000000
- Results of absorbance analysis (rate of hydrolysis of the substrate) ([1]; urine sample 23, healthy subject): 0.000000
- Results of absorbance analysis (rate of hydrolysis of the substrate) ([1]; urine sample 24, healthy subject): 0.000000
- Results of absorbance analysis (rate of hydrolysis of the substrate) ([1]; urine sample 25, healthy subject): 0.000000
- Results of absorbance analysis (rate of hydrolysis of the substrate) ([1]; urine sample 26, healthy subject): 0.000000
- Results of absorbance analysis (rate of hydrolysis of the substrate) ([1]; urine sample 27, healthy subject): 0.000000
- Results of absorbance analysis (rate of hydrolysis of the substrate) ([1]; urine sample 28, healthy subject): 0.000000
- Results of absorbance analysis (rate of hydrolysis of the substrate) ([1]; urine sample 29, healthy subject): 0.000000
- Results of absorbance analysis (rate of hydrolysis of the substrate) ([1]; urine sample 30, healthy subject): 0.000000
- Results of absorbance analysis (rate of hydrolysis of the substrate) ([1]; urine sample 31, healthy subject): 0.000000
- Results of absorbance analysis (rate of hydrolysis of the substrate) ([1]; urine sample 32, healthy subject): 0.000000
- Results of absorbance analysis (rate of hydrolysis of the substrate) ([1]; urine sample 33, healthy subject): 0.000000
- Results of absorbance analysis (rate of hydrolysis of the substrate) ([1]; urine sample 34, healthy subject): 0.000000
- Results of absorbance analysis (rate of hydrolysis of the substrate) ([1]; urine sample 36, healthy subject): 0.000000
- Results of absorbance analysis (rate of hydrolysis of the substrate) ([1]; urine sample 37, healthy subject): 0.000000
- Results of absorbance analysis (rate of hydrolysis of the substrate) ([1]; urine sample 38, healthy subject): 0.000000
- Results of absorbance analysis (rate of hydrolysis of the substrate) ([1]; urine sample 39, healthy subject): 0.000000
- Results of absorbance analysis (rate of hydrolysis of the substrate) ([1]; urine sample 40, healthy subject): 0.000000
- Results of absorbance analysis (rate of hydrolysis of the substrate) ([1]; urine sample N1, subject with kidney cancer): 0.027 and 0.019 and 0.023
- Results of absorbance analysis (rate of hydrolysis of the substrate) ([1]; urine sample N2, subject with kidney cancer): 0.021 and 0.014 and 0.019
- Results of absorbance analysis (rate of hydrolysis of the substrate) ([1]; urine sample N4, subject with kidney cancer): 0.032 and 0.029 and 0.03
- Results of absorbance analysis (rate of hydrolysis of the substrate) ([1]; urine sample N5, subject with kidney cancer): 0.034 and 0.032 and 0.029
- Results of absorbance analysis (rate of hydrolysis of the substrate) ([1]; urine sample N6, subject with kidney cancer): 0.0033 and 0.0027 and 0.003
- Results of absorbance analysis (rate of hydrolysis of the substrate) ([1]; urine sample N7, subject with kidney cancer): 0.02 and 0.021 and 0.018
- Results of absorbance analysis (rate of hydrolysis of the substrate) ([1]; urine sample N9, subject with kidney cancer): 0.031 and 0.03 and 0.035
- Results of absorbance analysis (rate of hydrolysis of the substrate) ([1]; urine sample N10, subject with kidney cancer): 0.0026 and 0.0037 and 0.0031
- Results of absorbance analysis (rate of hydrolysis of the substrate) ([1]; urine sample N11, subject with kidney cancer): 0.012 and 0.01 and 0.015
- Results of absorbance analysis (rate of hydrolysis of the substrate) ([1]; urine sample N12, subject with kidney cancer): 0.0098 and 0.0111 and 0.012
- Results of absorbance analysis (rate of hydrolysis of the substrate) ([1]; urine sample N13, subject with kidney cancer): 0.004 and 0.0051 and 0.0045
- Results of absorbance analysis (rate of hydrolysis of the substrate) ([1]; urine sample N14, subject with kidney cancer): 0.0036 and 0.0033 and 0.0032
- Results of absorbance analysis (rate of hydrolysis of the substrate) ([1]; urine sample N15, subject with kidney cancer): 0.0043 and 0.0037 and 0.004
- Results of absorbance analysis (rate of hydrolysis of the substrate) ([1]; urine sample N16, subject with kidney cancer): 0.0039 and 0.0037 and 0.0035
- Results of absorbance analysis (rate of hydrolysis of the substrate) ([1]; urine sample N17, subject with kidney cancer): 0.013 and 0.0135 and 0.0136
- Results of absorbance analysis (rate of hydrolysis of the substrate) ([1]; urine sample N18, subject with kidney cancer): 0.004 and 0.0032 and 0.0038
- Results of absorbance analysis (rate of hydrolysis of the substrate) ([1]; urine sample N19, subject with kidney cancer): 0.0038 and 0.004 and 0.0037
- Results of absorbance analysis (rate of hydrolysis of the substrate) ([1]; urine sample N20, subject with kidney cancer): 0.031 and 0.026
- Cleavage of the substrate in samples from patients with other cancers [2]: is not subject to cleavage
- Dependence of the hydrolysis level of the substrate on pH [4]: maximum activity at alkaline pH
- Results of absorbance analysis (rate of hydrolysis of the substrate) ([5]; urine sample 35, healthy subject, 405 nm, 37° C., 60 minutes, pH 8.0, triplicate): 0.000000
Substance: ABZ-Leu-Pro-Gly-Thr-ANB-NH2 ([2Abz]LPGT-{Benzoyl(5-NH,2-NO2)-NH2}) [chromogenic/fluorogenic peptide; ABZ is 2-aminobenzoic acid, ANB-NH2 is amide of 5-amino-2-nitrobenzoic acid]
- Cleavage products by RP HPLC analysis [3]: cleaves into the peptide fragment ABZ-Leu-Pro-Gly-Thr-OH and the chromophore group of the compound (ANB-NH2)
- Increase in absorbance / hydrolysis in urine samples from healthy persons ([5]; samples 21 to 40, without a cancer diagnosis): does not lead to an increase in absorbance

Reference: US20250270617A1, “Compound - diagnostic marker for kidney cancer, method for detecting enzymatic activity, method for diagnosis of kidney cancer, kit comprising the compound, uses of the compound and method for the treatment of kidney cancer” (URTESTE S.A., priority 2022, published 2025)
